Results: publication PMC11078216, “Discovery of potent and selective activity-based probes (ABPs) for the deubiquitinating enzyme USP30” (RSC Chemical Biology, 2024)

Molecular target: T1, USP30 (Homo sapiens, UniProt Q70CQ3)
T1 construct: Catalog #E-582 residues 57-517; purchased E-582
T1 sequence (Q70CQ3 57-517): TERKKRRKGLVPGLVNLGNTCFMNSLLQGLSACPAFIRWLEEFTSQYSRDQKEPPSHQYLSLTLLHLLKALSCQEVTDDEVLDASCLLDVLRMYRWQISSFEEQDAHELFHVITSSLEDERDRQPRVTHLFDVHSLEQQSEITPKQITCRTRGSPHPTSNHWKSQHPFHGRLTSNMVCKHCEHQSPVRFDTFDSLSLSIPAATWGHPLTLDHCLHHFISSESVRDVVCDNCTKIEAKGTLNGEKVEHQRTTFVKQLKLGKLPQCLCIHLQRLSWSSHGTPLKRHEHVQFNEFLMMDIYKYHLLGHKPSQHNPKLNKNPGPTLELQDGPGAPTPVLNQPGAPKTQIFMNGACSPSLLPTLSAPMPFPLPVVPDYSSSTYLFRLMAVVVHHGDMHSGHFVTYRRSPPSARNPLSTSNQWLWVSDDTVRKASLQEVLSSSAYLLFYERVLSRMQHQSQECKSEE
Assay: USP30 FP kinetic analysis (kobs/I, Ki, kinact) using Ub-Lys(TAMRA)-Gly
Format: biochemical
Conditions: for kinact/KI: read-out: kobs/I
Method: We further characterised inhibition kinetics for ABPs in a FP assay using Ub-Lys(TAMRA)-Gly. kobs/I, Ki and kinact determination assay was performed using 30 nM USP30 and 100 nM Ub-Lys(TAMRA)-Gly as described in ESI, ^† Section S3.1.c. FP was monitored kinetically over an hour after addition of the substrate, and response curves fitted to y = (vi/kobs) (1 − exp(−kobsx)) to calculate kobs/I, 5680 (95% Cl = 4723–6638) M^−1 s^−1 for IMP-2587, and 3021 (95% Cl = 2350–3693) M^−1 s^−1 for IMP-2586 (Fig. S1, ESI ^†).
4. Biochemical and biological methods and proteomics
1) Biochemical USP30 fluorescence polarisation (FP) assay using Ub-Lys(TAMRA)-Gly […]
USP30 was diluted in reaction buffer A (40 mM Tris, pH 7.5, 0.005% Tween 20, 0.5 mg/ml BSA, 5 mM betamercaptoethanol) and 10 μL of diluted 10.5 nM […]
b. USP30 biochemical kinetic assay
Reactions were performed in triplicate in black 384 well plates (small volume, Greiner 784076) in a final reaction volume of 20 ul. […]
Pherastar Plus (BMG Labtech). l Excitation 540 nm; l Emission 590 nm.
Inhibition kinetics for compound ABP 2 and ABP 4 were determined by preparing compound dilution plates at 21× final concentration in 50% DMSO in water. 50% DMSO (1 μL) or diluted compound (1 μL) was added to the reaction plate. Substrate Ub-TAMRA (200 nM, 10 μL) (final concentration: 100 nM) was prepared in buffer A described in section 3.1.a and added to the reaction plate. Reactions were initiated by the addition of USP30 (21 nM, 10 μL) (final concentration 10 nM), and fluorescence polarisation read immediately for 1 h in every 2 min. Analysis was performed in GraphPad Prism.
Kinetic progress curves were fitted to equation y = (vi/kobs) (1 − exp(−kobs*x)) to determine the kobs value (for first 30 min data). The kobs value was then plotted against the inhibitor concentration to […]

[1] = 30 nM USP30, 100 nM Ub-Lys(TAMRA)-Gly, nonlinear regression to kobs = kinact/(1 + (Ki/x))

What does the source list for `C#Cc1cccc(-c2cc(NC(=O)CC3CCN(C#N)C3)on2)c1` (centres unmarked) [IMP-2587]?
KI (inactivation) [1]: 42.7 nM; Ki [1]: 42.8 nM; kinact/KI: 5680 M⁻¹ s⁻¹

How did the Ki [1] turn out when `N#CN1CC[C@@H](NC(=O)c2cc(-c3ccccc3Oc3ccc(N=[N+]=[N-])cc3)n[nH]2)C1` [IMP-2586] was run?
Its Ki is 5.6 nM.

And the kinact/KI?
Its kinact/KI is 3020 M⁻¹ s⁻¹.
